Experimental findings from patent publication US10676465B2, “GLP-1 receptor agonists and uses thereof” (Pfizer Inc., priority 2018, dated 2020) are described below.

The target in test [1] is human GLP-1R (Homo sapiens (Human), UniProt P43220, L260F). As to the kind of experiment: CHO GLP-1R Clone C6 - Assay 2 (HTRF cAMP agonist assay, low receptor density). Conditions: for Emax: read-out: Assay 2 Emax (%), CHO GLP-1R Clone C6 (low receptor density), arithmetic mean, relative to saturating GLP-1 (1 μM). In general terms: In TR-FRET formats the signal depends on donor and acceptor labels being close together.

In test [2] the target is human GLP-1R (Homo sapiens, UniProt P43220, G168S). Description: CHO GLP-1R Clone H6 - Assay 1 (HTRF cAMP agonist assay). It counts as cell-based. Conditions: for EC50: CHO GLP-1R Clone H6, cAMP HTRF, geometric mean.
Protocol: GLP-1R-mediated agonist activity was determined with a cell-based functional assay utilizing an HTRF (Homogeneous Time-Resolved Fluorescence) cAMP detection kit (cAMP HI Range Assay Kit; CisBio cat #62AM6PEJ) that measures cAMP levels in the cell. The method is a competitive immunoassay between native cAMP produced by the cells and exogenous cAMP labeled with the dye d2. The tracer binding is visualized by a mAb anti-cAMP labeled with Cryptate. The specific signal (i.e. energy transfer) is inversely proportional to the concentration of cAMP in either standard or experimental sample.
The human GLP-1R coding sequence (NCBI Reference Sequence NP_002053.3, including naturally-occurring variant Gly168Ser) was subcloned into pcDNA3 (Invitrogen) and a cell line stably expressing the receptor was isolated (designated Clone H6).
Cells were removed from cryopreservation, re-suspended in 40 mL of Dulbecco's Phosphate Buffered Saline (DPBS—Lonza Cat #17-512Q) and centrifuged at 800×g for 5 minutes at 22° C. The cell pellet was then re-suspended in 10 mL of growth medium [DMEM/F12 1:1 Mixture with HEPES, L-Gln, 500 mL (DMEM/F12 Lonza Cat #12-719F), 10% heat inactivated fetal bovine serum (Gibco Cat #16140-071), 5 mL of 100× Pen-Strep (Gibco Cat #15140-122), 5 mL of 100×L-Glutamine (Gibco Cat #25030-081) and 500 μg/mL Geneticin (G418) (Invitrogen #10131035)]. A 1 mL sample of the cell suspension in growth media was counted on a Becton Dickinson ViCell to determine cell viability and cell count per mL. The remaining cell suspension was then adjusted with growth media to deliver 2000 viable cells per well using a Matrix Combi Multidrop reagent dispenser, and the cells were dispensed into a white 384 well tissue culture treated assay plate (Corning 3570). The assay plate was then incubated for 48 hours at 37° C. in a humidified environment in 5% carbon dioxide.
Varying concentrations of each compound to be tested (in DMSO) were diluted in assay buffer (HBSS with Calcium/Magnesium (Lonza/BioWhittaker cat #10-527F)/0.1% BSA (Sigma Aldrich cat # A7409-1L)/20 mM HEPES (Lonza/BioWhittaker cat #17-737E) containing 100 μM 3-isobutyl-1-methylxanthin (IBMX; Sigma cat #15879). The final DMSO concentration is 1%.
After 48 hours, the growth media was removed from the assay plate wells, and the cells were treated with 20 μL of the serially diluted compound in assay buffer for 30 minutes at 37° C. in a humidified environment in 5% carbon dioxide. Following the 30 minute incubation, 10 μL of labeled d2 cAMP and 10 μL of anti-cAMP antibody (both diluted 1:20 in cell lysis buffer; as described in the manufacturer's assay protocol) were added to each well of the assay plate. The plates were then incubated at room temperature and after 60 minutes, changes in the HTRF signal were read with an Envision 2104 multi-label plate reader using excitation of 330 nm and emissions of 615 and 665 nm. Raw data were converted to nM cAMP by interpolation from a cAMP standard curve (as described in the manufacturer's assay protocol) and the percent effect was determined relative to a saturating concentration of the full agonist GLP-17-36 (1 μM) included on each plate. EC50 determinations were made from agonist dose-response curves analyzed with a curve fitting program using a 4-parameter logistic dose response equation.
Where [3] appears, read: read-out: Assay 2 EC50, CHO GLP-1R Clone C6 (low receptor density), cAMP HTRF, geometric mean.
Setting [4] is: CHO GLP-1R Clone H6, arithmetic mean, relative to saturating GLP-1 (1 μM).

Where two headings read alike, the source gives them in different places.

Sequence of human GLP-1R (Homo sapiens, UniProt P43220, G168S) (P43220 24-463 G168S limits assumed): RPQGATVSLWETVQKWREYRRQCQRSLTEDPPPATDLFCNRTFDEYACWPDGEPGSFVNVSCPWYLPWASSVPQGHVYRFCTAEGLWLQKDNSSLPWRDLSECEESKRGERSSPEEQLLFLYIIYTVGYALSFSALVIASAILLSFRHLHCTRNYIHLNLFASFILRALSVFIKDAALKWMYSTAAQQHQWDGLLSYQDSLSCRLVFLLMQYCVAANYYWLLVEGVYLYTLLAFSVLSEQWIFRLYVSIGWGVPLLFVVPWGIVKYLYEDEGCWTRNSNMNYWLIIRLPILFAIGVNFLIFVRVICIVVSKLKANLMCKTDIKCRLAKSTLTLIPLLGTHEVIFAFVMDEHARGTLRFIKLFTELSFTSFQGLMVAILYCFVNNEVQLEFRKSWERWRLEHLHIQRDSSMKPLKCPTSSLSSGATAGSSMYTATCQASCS
Sequence of human GLP-1R (Homo sapiens (Human), UniProt P43220, L260F) (P43220 24-463 L260F): as the sequence (P43220 24-463 G168S limits assumed) above, with S145G, L237F counted along it

The EC50 is the concentration giving half of the maximal effect. A word on the Emax: it is the maximal effect, on the per cent scale that the assay sets. On to `CN(C)C(=O)Cn1c(CN2CCC(c3cccc4c3OC(C)(c3ccc(Cl)cc3F)O4)CC2)nc2ccc(C(=O)O)cc21` (stereo not shown) [Example 66, 2-({4-[2-(4-chloro-2-fluorophenyl)-2-methyl-1,3-benzodioxol-4-yl]piperidin-1-yl}methyl)-1-[2-(dimethylamino)-2-oxoethyl]-1H-benzimidazole-6-carboxylic acid], for which the values for the EC50 on human GLP-1R [1] (setting [3]) and on human GLP-1R [2] were 850 nM and 51 nM, respectively. Also, the figures for the Emax at human GLP-1R [1] and at human GLP-1R [2] (setting [4]) were 74% and 82%, respectively.
For `COCCn1c(CN2CCC(c3cccc4c3OC(C)(c3ccc(OC)c(F)c3)O4)CC2)nc2ccc(C(=O)O)cc21` (stereo not shown) [Example 30, 2-({4-[2-(3-fluoro-4-methoxyphenyl)-2-methyl-1,3-benzodioxol-4-yl]piperidin-1-yl}methyl)-1-(2-methoxyethyl)-1H-benzimidazole-6-carboxylic acid], in that order: 1100 nM, 45 nM, 77% and 86%.
As to `CC1(c2ccc(Cl)cc2F)Oc2cccc(C3CCN(Cc4nc5ccc(C(=O)O)nc5n4Cc4cnco4)CC3)c2O1` (stereo not shown) [Example 81, 2-({4-[2-(4-chloro-2-fluorophenyl)-2-methyl-1,3-benzodioxol-4-yl]piperidin-1-yl}methyl)-3-(1,3-oxazol-5-ylmethyl)-3H-imidazo[4,5-b]pyridine-5-carboxylic acid], the EC50 at human GLP-1R [1] (setting [3]) turned out to be 54 nM; on human GLP-1R [2] it was 29 nM. For the same molecule, the Emax on human GLP-1R [1] and at human GLP-1R [2] (setting [4]) was 110% throughout.
Consider `COCCn1c(CN2CCN(c3cccc4c3OC(c3ccc(Cl)cc3F)O4)CC2)nc2ccc(C(=O)O)cc21` (single isomer, unassigned) [Example 2, 2-({4-[2-(4-Chloro-2-fluorophenyl)-1,3-benzodioxol-4-yl]piperazin-1-yl}methyl)-1-(2-methoxyethyl)-1H-benzimidazole-6-carboxylic Acid], for which the EC50 on human GLP-1R [1] (Assay 2 EC50 (nM), CHO GLP-1R Clone C6 (low receptor density), cAMP HTRF, geometric mean) amounted to 260 nM; on human GLP-1R [2] it was 6.6 nM. At human GLP-1R [1], the Emax stood at 100%. Besides, the “Assay 1 Emax (%)” value at human GLP-1R [2] (setting [4]) is on record as 81%.
Consider `CC1(c2ccc(Cl)cc2F)Oc2cccc(C3CCN(Cc4nc5ccc(C(=O)O)cc5n4Cc4cccnc4)CC3)c2O1` (stereo not shown) [Example 65, 2-({4-[2-(4-chloro-2-fluorophenyl)-2-methyl-1,3-benzodioxol-4-yl]piperidin-1-yl}methyl)-1-(pyridin-3-ylmethyl)-1H-benzimidazole-6-carboxylic acid], for which the EC50 at human GLP-1R [1] (setting [3]) amounted to 11 nM; at human GLP-1R [2] it was 1.2 nM. The Emax at human GLP-1R [1] and at human GLP-1R [2] (setting [4]) was 99% throughout.
In the case of `COCCn1c(CN2CCC(c3cccc4c3OC(C)(c3ccccn3)O4)CC2)nc2ccc(C(=O)O)cc21` (stereo not shown) [Example 89, 1-(2-methoxyethyl)-2-({4-[2-methyl-2-(pyridin-2-yl)-1,3-benzodioxol-4-yl]piperidin-1-yl}methyl)-1H-benzimidazole-6-carboxylic acid], the EC50 on human GLP-1R [1] (setting [3]) was 2900 nM; at human GLP-1R [2], 130 nM. The Emax came out at 87% at human GLP-1R [1] and 85% on human GLP-1R [2] (setting [4]).
For `CC1(c2ccc(C#N)cc2F)Oc2cccc(C3CCN(Cc4nc5ccc(C(=O)O)cc5n4Cc4ncco4)CC3)c2O1` (stereo not shown) [Example 98, ammonium 2-({4-[2-(4-cyano-2-fluorophenyl)-2-methyl-1,3-benzodioxol-4-yl]piperidin-1-yl}methyl)-1-(1,3-oxazol-2-ylmethyl)-1H-benzimidazole-6-carboxylate], in that order: 440 nM, 50 nM, 95% and 97%.
For `Cn1c(CN2CCC(c3cccc4c3O[C@@](C)(c3ccc(Cl)cc3F)O4)CC2)nc2ccc(C(=O)O)cc21` [Example 14, 2-({4-[(2S)-2-(4-Chloro-2-fluorophenyl)-2-methyl-1,3-benzodioxol-4-yl]piperidin-1-yl}methyl)-1-methyl-1H-benzimidazole-6-carboxylic Acid], in that order: 79 nM, 7 nM, 85% and 95%.
For `COCCn1cnnc1Cn1c(CN2CCC(c3cccc4c3OC(C)(c3ccc(Cl)cc3F)O4)CC2)nc2ccc(C(=O)O)cc21` (stereo not shown) [Example 70, 2-({4-[2-(4-chloro-2-fluorophenyl)-2-methyl-1,3-benzodioxol-4-yl]piperidin-1-yl}methyl)-1-{[4-(2-methoxyethyl)-4H-1,2,4-triazol-3-yl]methyl}-1H-benzimidazole-6-carboxylic acid], in that order: 97 nM, 2.8 nM, 100% and 100%.
Consider `COCCn1c(CN2CCC(c3cccc4c3OC(c3ccc(C#N)cc3F)O4)CC2)nc2ccc(C(=O)O)cc21` (stereo not shown) [Example 27, 2-({4-[2-(4-cyano-2-fluorophenyl)-1,3-benzodioxol-4-yl]piperidin-1-yl}methyl)-1-(2-methoxyethyl)-1H-benzimidazole-6-carboxylic acid], for which the EC50 is 1000 nM on human GLP-1R [1] (setting [3]) and 61 nM at human GLP-1R [2]. Moreover, the Emax on human GLP-1R [1] was found to be 100%; at human GLP-1R [2] (setting [4]), 98%.
Turning to `CC1(c2ccc(Cl)cc2F)Oc2cccc(C3CCN(Cc4nc5ccc(C(=O)O)cc5n4CCn4ccnc4)CC3)c2O1` (stereo not shown) [Example 50, 2-({4-[2-(4-chloro-2-fluorophenyl)-2-methyl-1,3-benzodioxol-4-yl]piperidin-1-yl}methyl)-1-[2-(1H-imidazol-1-yl)ethyl]-1H-benzimidazole-6-carboxylic acid], the figures for the EC50 at human GLP-1R [1] (setting [3]) and on human GLP-1R [2] were 140 nM and 12 nM, respectively. Also, the Emax on human GLP-1R [1] is 92%; on human GLP-1R [2] (setting [4]) it was 87%.
For `CC1(c2ccc(Cl)cc2F)Oc2cccc(C3CCN(Cc4nc5ccc(C(=O)O)cc5n4C[C@H]4CCCO4)CC3)c2O1` (stereo partly drawn) [Example 64, 2-({4-[2-(4-chloro-2-fluorophenyl)-2-methyl-1,3-benzodioxol-4-yl]piperidin-1-yl}methyl)-1-[(2R)-tetrahydrofuran-2-ylmethyl]-1H-benzimidazole-6-carboxylic acid] the same measures were 91 nM, 9.2 nM, 80% and 94%.
For `COCCn1c(CN2CCC(c3cccc4c3OC(C)(c3ccccc3Cl)O4)CC2)nc2ccc(C(=O)O)cc21` (stereo not shown) [Example 86, 2-({4-[2-(2-chlorophenyl)-2-methyl-1,3-benzodioxol-4-yl]piperidin-1-yl}methyl)-1-(2-methoxyethyl)-1H-benzimidazole-6-carboxylic acid] the same measures were 410 nM, 24 nM, 100% and 91%.
For `Cn1cnc(Cn2c(CN3CCC(c4cccc5c4OC(C)(c4ccc(Cl)cc4F)O5)CC3)nc3ccc(C(=O)O)cc32)c1` (stereo not shown) [Example 77, 2-({4-[2-(4-chloro-2-fluorophenyl)-2-methyl-1,3-benzodioxol-4-yl]piperidin-1-yl}methyl)-1-[(1-methyl-1H-imidazol-4-yl)methyl]-1H-benzimidazole-6-carboxylic acid], in that order: 1700 nM, 53 nM, 92% and 89%.
Turning to `Cn1cnnc1Cn1c(CN2CCC(c3cccc4c3OC(C)(c3ccc(Cl)cc3F)O4)CC2)nc2ccc(C(=O)O)cc21` (stereo not shown) [Example 78, 2-({4-[2-(4-chloro-2-fluorophenyl)-2-methyl-1,3-benzodioxol-4-yl]piperidin-1-yl}methyl)-1-[(4-methyl-4H-1,2,4-triazol-3-yl)methyl]-1H-benzimidazole-6-carboxylic acid], the EC50 on human GLP-1R [1] (setting [3]) came out at 78 nM; at human GLP-1R [2], 4.5 nM. Also, the Emax came out at 100% on human GLP-1R [1] and 89% on human GLP-1R [2] (setting [4]).
Take `CC(=O)N(C)CCn1c(CN2CCC(c3cccc4c3OC(C)(c3ccc(Cl)cc3F)O4)CC2)nc2ccc(C(=O)O)cc21` (stereo not shown) [Example 43, 1-{2-[acetyl(methyl)amino]ethyl}-2-({4-[2-(4-chloro-2-fluorophenyl)-2-methyl-1,3-benzodioxol-4-yl]piperidin-1-yl}methyl)-1H-benzimidazole-6-carboxylic acid]: the EC50 on human GLP-1R [1] (setting [3]) was found to be 65 nM; at human GLP-1R [2], 3.5 nM. Also, the Emax came to 86% on human GLP-1R [1] and 88% on human GLP-1R [2] (setting [4]).
With `COCCn1c(CN2CCC(c3cccc4c3OC(C)(c3ccc(C#N)cn3)O4)CC2)nc2ccc(C(=O)O)cc21` (stereo not shown) [Example 93, ammonium 2-({4-[2-(5-cyanopyridin-2-yl)-2-methyl-1,3-benzodioxol-4-yl]piperidin-1-yl}methyl)-1-(2-methoxyethyl)-1H-benzimidazole-6-carboxylate], the figures for the EC50 on human GLP-1R [1] (setting [3]) and on human GLP-1R [2] were above 20000 nM and above 6500 nM, respectively. This molecule also returned an Emax at human GLP-1R [2] (setting [4]) of 84%.
`O=C(O)c1ccc2nc(CN3CCC(c4cccc5c4O[C@@H](c4ccc(Cl)cc4F)O5)CC3)n(C[C@@H]3CCO3)c2c1` [Example 5, Ammonium 2-({4-[(2S)-2-(4-chloro-2-fluorophenyl)-1,3-benzodioxol-4-yl]piperidin-1-yl}methyl)-1-[(2S)-oxetan-2-ylmethyl]-1H-benzimidazole-6-carboxylate]: the EC50 on human GLP-1R [1] (EC50 in Assay 2, CHO GLP-1R Clone C6, cAMP, geometric mean of replicates) came out at 20 nM; on human GLP-1R [1] (setting [3]), 23 nM; at human GLP-1R [2] it was 1.3 nM. The Emax on human GLP-1R [1] came to 97%; on human GLP-1R [2] (setting [4]), 89%.
Turning to `CC1(c2ccc(Cl)cc2F)Oc2cccc(C3CCN(Cc4nc5ccc(C(=O)O)cc5n4CCN4CCCC4=O)CC3)c2O1` (stereo not shown) [Example 48, 2-({4-[2-(4-chloro-2-fluorophenyl)-2-methyl-1,3-benzodioxol-4-yl]piperidin-1-yl}methyl)-1-[2-(2-oxopyrrolidin-1-yl)ethyl]-1H-benzimidazole-6-carboxylic acid], the figures for the EC50 at human GLP-1R [1] (setting [3]) and on human GLP-1R [2] were 280 nM and 14 nM, respectively. The Emax at human GLP-1R [1] was 73%; on human GLP-1R [2] (setting [4]) it was 81%.
